Laboratory results as given in US9981909B2 (Janssen Pharmaceutica NV, priority 2008, dated 2018).

Experiments:
human SERT = human SERT (Homo sapiens (Human), UniProt P31645); test: human SERT binding assay with [3H]-citalopram on HEK-293 membranes; details: read-out: hSERT binding Ki
h5HT2B = h5HT2B (Homo sapiens (Human), UniProt P41595); test: h5HT2B binding
h5HT2A = h5HT2A (Homo sapiens (Human), UniProt P28223); test: h5HT2A binding
rat 5-HT7 receptor = rat 5-HT7 receptor (Rattus norvegicus (Rat), UniProt P32305); test: r5-HT7 binding assay, competitive radioligand binding with [3H]5-CT
Sequence of rat 5-HT7 receptor (P32305 1-435): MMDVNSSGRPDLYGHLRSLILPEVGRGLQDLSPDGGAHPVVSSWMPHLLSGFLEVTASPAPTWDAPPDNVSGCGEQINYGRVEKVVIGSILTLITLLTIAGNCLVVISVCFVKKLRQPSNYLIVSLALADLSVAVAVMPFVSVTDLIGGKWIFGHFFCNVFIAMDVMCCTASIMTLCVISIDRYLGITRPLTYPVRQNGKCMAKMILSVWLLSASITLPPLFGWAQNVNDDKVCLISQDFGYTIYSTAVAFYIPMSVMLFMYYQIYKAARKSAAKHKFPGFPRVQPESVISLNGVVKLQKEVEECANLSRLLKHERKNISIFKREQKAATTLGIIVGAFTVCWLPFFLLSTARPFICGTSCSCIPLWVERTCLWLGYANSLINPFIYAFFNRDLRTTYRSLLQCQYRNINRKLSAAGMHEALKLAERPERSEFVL
Summary of the method: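 Competition against [3H]5-CT on rat 5-HT7 HEK-293 membranes; Ki from radioactivity. Functional: 10 min compound, 100 nM 5-CT for 20 min, cAMP immunoassay after lysis.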

h5HT2C = h5HT2C (Homo sapiens (Human), UniProt P28335); test: h5HT2C binding
Sequence of h5HT2C (P28335 33-458): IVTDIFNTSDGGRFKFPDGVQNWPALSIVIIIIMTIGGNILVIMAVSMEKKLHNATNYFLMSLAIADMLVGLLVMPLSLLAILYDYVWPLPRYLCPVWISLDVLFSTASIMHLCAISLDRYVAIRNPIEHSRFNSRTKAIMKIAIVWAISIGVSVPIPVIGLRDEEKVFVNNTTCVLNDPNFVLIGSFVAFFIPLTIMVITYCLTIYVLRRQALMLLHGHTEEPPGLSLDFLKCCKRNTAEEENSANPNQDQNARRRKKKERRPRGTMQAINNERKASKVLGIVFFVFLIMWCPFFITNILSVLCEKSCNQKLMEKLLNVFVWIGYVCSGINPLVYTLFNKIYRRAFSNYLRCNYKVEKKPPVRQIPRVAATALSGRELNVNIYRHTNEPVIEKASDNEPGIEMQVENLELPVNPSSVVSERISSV

r5-HT7 receptor = r5-HT7 receptor (Rattus norvegicus (Rat), UniProt P32305); test: HitHunter cAMP assay, antagonist testing against 100 nM 5-CT; assay type: cell-based; details: antagonist testing, 100 nM 5-CT challenge, HEK-293 r5-HT7; read-out: R5HT7 cAMP pKb (converted)
Sequence of r5-HT7 receptor (P32305 1-435): as the sequence (P32305 1-435) above
Method: Receptor binding was performed using membrane fractions prepared from the HEK-293 cell line recombinantly expressing rat 5-HT7 receptors (NCBI accession NM_022938). Compound affinity for the rat 5-HT7 receptor subtype was evaluated by competitive radioligand binding assays using 5-carboxamido[^3H]tryptamine ([^3H]5-CT) (Amersham Biosciences, cat. 90000403) detection. HitHunter™ cAMP assays are in-vitro based competitive immunoassays. The assay was performed on the HEK-293 cell line stably transfected with r5-HT7 receptor. Cells were pre-incubated with test compounds for 10 minutes. For antagonist testing, the cells were then challenged with 100 nM 5-CT for 20 minutes. Cells were then lysed and cAMP measured according to manufacturers protocol (Amersham, cat. NET791250UC) or [^3H]mesulergine (Amersham, cat. TRK1041). The assay was performed on membranes prepared from HEK-293 cells stably transfected with h5-HT6. Following centrifugation, membranes were resuspended and incubated for 60 min at room temperature with 1.7 nM [^3H]LSD in the presence of increasing concentration of test compounds. Nonspecific binding was defined in the presence of 10 μM clozapine (Tocris, cat. TRK1068). Homogenized HEK-293 membranes expressing the human SERT were incubated in 50 mM Tris-HCl (pH 7.5), 120 mM NaCl, 5 mM KCl with [^3H]-citalopram (3 nM) with or without test compounds. Nonspecific binding was determined in the presence of 10 μM fluoxetine. Radioactivity readouts and Ki values were performed as previously described for r5-HT7. […] Compounds were assayed in their free form or as salts, as indicated in the Examples section above.

[1] = rat 5-HT7 receptor, HEK-293 membranes

Sequence of human SERT (P31645 whole entry): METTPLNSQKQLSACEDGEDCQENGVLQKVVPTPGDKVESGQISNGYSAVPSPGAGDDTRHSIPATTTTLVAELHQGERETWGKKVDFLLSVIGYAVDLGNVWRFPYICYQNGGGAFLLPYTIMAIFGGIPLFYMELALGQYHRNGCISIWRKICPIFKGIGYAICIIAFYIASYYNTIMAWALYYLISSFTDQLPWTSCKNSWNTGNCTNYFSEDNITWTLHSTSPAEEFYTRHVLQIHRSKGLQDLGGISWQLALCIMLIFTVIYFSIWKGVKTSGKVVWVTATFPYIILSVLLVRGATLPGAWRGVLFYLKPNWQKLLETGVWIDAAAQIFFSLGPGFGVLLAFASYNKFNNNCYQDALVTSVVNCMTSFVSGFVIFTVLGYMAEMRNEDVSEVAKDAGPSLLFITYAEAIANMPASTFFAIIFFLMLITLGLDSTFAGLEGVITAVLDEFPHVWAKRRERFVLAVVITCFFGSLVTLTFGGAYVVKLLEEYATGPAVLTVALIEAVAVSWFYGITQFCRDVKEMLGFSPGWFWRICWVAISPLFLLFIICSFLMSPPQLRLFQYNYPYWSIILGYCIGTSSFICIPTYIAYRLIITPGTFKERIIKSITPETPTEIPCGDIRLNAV
Sequence of h5HT2B (P41595 whole entry): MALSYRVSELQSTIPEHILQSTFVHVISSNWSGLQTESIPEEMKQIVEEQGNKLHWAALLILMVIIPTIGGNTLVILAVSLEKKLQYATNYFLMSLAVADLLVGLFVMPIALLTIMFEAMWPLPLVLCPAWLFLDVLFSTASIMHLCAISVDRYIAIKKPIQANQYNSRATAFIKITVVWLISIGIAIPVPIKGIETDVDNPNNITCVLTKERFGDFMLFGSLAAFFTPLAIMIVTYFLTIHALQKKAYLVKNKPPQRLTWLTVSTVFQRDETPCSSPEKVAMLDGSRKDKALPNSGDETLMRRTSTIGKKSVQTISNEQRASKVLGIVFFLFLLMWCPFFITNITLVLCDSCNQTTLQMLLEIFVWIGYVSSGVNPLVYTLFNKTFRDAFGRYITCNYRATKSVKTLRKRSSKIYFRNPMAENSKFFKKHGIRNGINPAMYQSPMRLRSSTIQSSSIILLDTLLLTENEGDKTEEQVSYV
Sequence of h5HT2A (P28223 whole entry): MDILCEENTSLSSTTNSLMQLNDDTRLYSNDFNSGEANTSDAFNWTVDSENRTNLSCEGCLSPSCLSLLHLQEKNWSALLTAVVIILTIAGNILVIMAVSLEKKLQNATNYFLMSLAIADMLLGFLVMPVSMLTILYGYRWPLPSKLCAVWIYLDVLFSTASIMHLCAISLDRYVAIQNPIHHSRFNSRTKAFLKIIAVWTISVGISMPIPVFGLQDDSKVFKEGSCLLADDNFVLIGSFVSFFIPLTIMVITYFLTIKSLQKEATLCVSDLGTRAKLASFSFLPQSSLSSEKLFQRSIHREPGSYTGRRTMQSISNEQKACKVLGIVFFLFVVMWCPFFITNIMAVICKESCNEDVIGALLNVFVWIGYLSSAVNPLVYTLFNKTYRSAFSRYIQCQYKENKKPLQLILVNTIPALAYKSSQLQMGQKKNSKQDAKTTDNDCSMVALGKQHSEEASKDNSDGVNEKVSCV

Row | Structure (SMILES) | Ki (h5HT2B) [nM] | Ki (h5HT2A) [nM] | Ki (rat 5-HT7 receptor; [1]) [nM] | Ki (h5HT2C) [nM] | Ki (human SERT) [nM] | Kb (r5-HT7 receptor) [nM] | Ki (rat 5-HT7 receptor; rat 5-HT7, HEK-293 membranes) [nM]
1 | FC(F)(F)c1ccnc(COc2ccc(Cl)cc2OC2CNC2)c1 [Example 81, 2-[2-(Azetidin-3-yloxy)-4-chloro-phenoxymethyl]-4-trifluoromethyl-pyridine] | 367 | 76 | 97 | 590 | 1170 | – | –
2 | COC(COc1ccc(Cl)cc1OC1CNC1)c1ccccc1 (stereo not shown) [Example 168, 3-[5-Chloro-2-(2-methoxy-2-phenyl-ethoxy)-phenoxy]-azetidine] | 21 | 8 | 130 | 48 | – | – | –
3 | ON=C(COc1ccc(Cl)cc1OC1CNC1)c1ccccc1 [Example 181, 2-[2-(Azetidin-3-yloxy)-4-chloro-phenoxy]-1-phenyl-ethanone oxime] | – | – | 19 | – | 967 | 20 | –
4 | CN1CC(Oc2cc(F)ccc2OCc2cccc(Cl)c2)C1 [Example 203, 3-[2-(3-Chloro-benzyloxy)-5-fluoro-phenoxy]-1-methyl-azetidine] | – | – | 24 | – | 271 | 20 | –
5 | CC(C)N1CC(Oc2cc(F)ccc2OCc2ccc(C(F)(F)F)o2)C1 [Example 209, 3-[5-Fluoro-2-(5-trifluoromethyl-furan-2-ylmethoxy)-phenoxy]-1-isopropyl-azetidine] | – | – | 13 | – | 20 | 20 | –
6 | Clc1cccc(Oc2ccc(Br)cc2OC2CNC2)c1 [Example 252, 3-[5-Bromo-2-(3-chloro-phenoxy)-phenoxy]-azetidine] | – | – | – | – | 60 | 63.1 | 7
7 | Clc1ccc(Oc2ccc3ccccc3c2)c(OC2CNC2)c1 [Example 260, 3-[5-Chloro-2-(naphthalen-2-yloxy)-phenoxy]-azetidine] | – | – | – | – | 2 | 1000 | 16
8 | O=C(c1ccc2ccccc2c1)c1ccc(Br)cc1OC1CNC1 [Example 287, [2-(Azetidin-3-yloxy)-4-bromo-phenyl]-naphthalen-2-yl-methanone] | – | – | – | – | 14 | 63.1 | 15
9 | O=C(c1ccc2c(c1)OCO2)c1ccc(Br)cc1OC1CNC1 [Example 289, [2-(Azetidin-3-yloxy)-4-bromo-phenyl]-benzo[1,3]dioxol-5-yl-methanone] | – | – | – | – | 437 | 39.8 | 34

Now from value to molecule, other results behind:

Row | Ki (h5HT2B) [nM] | Ki (h5HT2A) [nM] | Ki (rat 5-HT7 receptor; [1]) [nM] | Ki (h5HT2C) [nM] | Structure (SMILES) | Ki (human SERT) [nM] | Kb (r5-HT7 receptor) [nM] | Ki (rat 5-HT7 receptor; rat 5-HT7, HEK-293 membranes) [nM]
10 | 83 | 20 | 920 | 160 | Clc1ccc(O[C@@H]2CCNC2)c(OCc2ccccc2)c1 [Example 90, (R)-3-(2-Benzyloxy-4-chloro-phenoxy)-pyrrolidine] | – | – | –
11 | 50 | 5 | 500 | 120 | CN1CC[C@@H](Oc2ccc(Cl)cc2OCc2ccccc2)C1 [Example 91, (R)-3-(2-Benzyloxy-4-chloro-phenoxy)-1-methyl-pyrrolidine] | – | – | –
12 | 28 | 14 | 260 | 110 | Clc1cccc(COc2cc(Cl)ccc2O[C@@H]2CCNC2)c1 [Example 92, (R)-3-[4-Chloro-2-(3-chloro-benzyloxy)-phenoxy]-pyrrolidine] | – | – | –
13 | 13 | 3 | 140 | 51 | CN1CC[C@@H](Oc2ccc(Cl)cc2OCc2cccc(Cl)c2)C1 [Example 93, (R)-3-[4-Chloro-2-(3-chloro-benzyloxy)-phenoxy]-1-methyl-pyrrolidine] | – | – | –
14 | 250 | 32 | > 2500 | 69 | Clc1cccc(COc2cc(Cl)ccc2O[C@H]2CCNC2)c1 [Example 94, (S)-3-[4-Chloro-2-(3-chloro-benzyloxy)-phenoxy]-pyrrolidine] | – | – | –
15 | 30 | 24 | 33 | 181 | Clc1ccc(OC2CCc3ccccc3C2)c(OC2CNC2)c1 (stereo not shown) [Example 164, 3-[5-Chloro-2-(1,2,3,4-tetrahydro-naphthalen-2-yloxy)-phenoxy]-azetidine] | 8 | – | –
